For one data set, the system named is stem cells from fat. Put plainly: Reprogramming of harvested adipose stem cells by drug treatment. Format: cell-based. The note with it: harvested stem cells treated with the drug. An excerpt:
Embodiments of the present invention include performing adult adipose derived stem cell therapy to treat patients with ALS. Amyelotrophic Lateral Sclerosis (ALS) is a fatal disease with no treatment options. Since ALS is a neurological disorder, it was believed that patients would need neural stem cells, not the mesenchymal type stem cells that we have obtained from harvested adipose tissue. But, because neural stem cells are difficult to attain for various physiological and regulatory reasons, a new technical approach that targets the conversion or reprogramming of mesenchymal type stem cells that are obtained from adipose tissue recovered from the same patient to be treated has been generated.
An examplary stem cell therapy involves the use of adipose derived stem cells, which are then incubated with Selegeline, which results in preinduction into motor neurons. Initially, adipose tissue or fat is harvested via a minimally invasive liposuction. Then the fat is processed to separate the vascular stromal fraction of stem cells. […] Once processed, the majority of stem cells are administered into the spine (spinal fluid) via a lumbar puncture. A small dilute fraction of cells are injected into a select muscle group. […] The techniques allowing for culturing of stem cells and the reintroduction will help increase stem cell numbers. […]

In the next data set the test system is ALS mouse model. The note with it: cited from earlier work.
For data set [1] the following is noted: previous studies; cited from earlier work.
The test system of a further data set is SOD1 rats. The following applies: ex vivo gene delivery within muscles, midstages of the disease; cited from earlier work.

In the case of `C#CCN(C)[C@H](C)Cc1ccccc1` [Selegeline], the “reprogramming of stem cells” value with stem cells from fat is “able to reprogram the stem cells from fat into neural like cells”. As for IGF-1: Insulin like growth factor 1, in the data set with ALS mouse model, the progression entry is recorded as “delayed progression” and the survival result is “increased survival”.

B1: CNTF: a neurotrophic factor that is protective of neurons (protein, UniProt P26441 1-200, looked up)
Ciliary neurotrophic factor: MAFTEHSPLTPHRRDLCSRSIWLARKIRSDLTALTESYVKHQGLNKNINLDSADGMPVASTDQWSELTEAERLQENLQAYRTFHVLLARLLEDQQVHFTPTEGDFHQAIHTLLLQVAAFAYQIEELMILLEYKIPRNEADGMPINVGDGGLFEKKLWGLKVLQELSQWTVRSIHDLRFISSHQTGIPARGSHYIANNKKM
As for B1, the half life in data set [1] is 2.9 min.

B2: GDNF: Glial derived neurotrophic factor; in b58 given by ex vivo gene delivery within muscles (protein, UniProt P39905 78-211, looked up)
Glial cell line-derived …: SPDKQMAVLPRRERNRQAAAANPENSRGKGRRGQRGKNRGCVLTAIHLNVTDLGLGYETKEELIFRYCSGSCDAAETTYDKILKNLSRNRRLVSDKVGQACCRPIAFDDDLSFLDDNLVYHILRKHSAKRCGCI
Regarding B2, in the data set with ALS mouse model, the “number of neuromuscular connections and motor neuron cell bodies” value is “increased the number of neuromuscular connections and motor neuron cell bodies”. The “number of neuromuscular connections and MN cell bodies” value with SOD1 rats was “significantly increased the number of neuromuscular connections”.

The values are drawn from US20160193251A1, “METHOD FOR TREATING ALS VIA THE INCREASED PRODUCTION OF FACTOR H” (BioViva USA Inc., priority 2013, published 2016).
